How the values were obtained:
[1] = Solubility analysis: clarity by optical density at 850 nm (OD850) after reconstitution; format: physicochemical; conditions: lyophilized, reconstituted in DPBS pH 7.0, 1 mM
Description: FIG. 4. Solubility of dye-chloroalkyl ligand conjugates following lyophilization in the presence of various excipients and reconstitution in DPBS pH 7.0.
Vials of lyophilized Chloroalkyl-JANELIA FLUOR 552 (CA-JF 552) and Chloroalkyl-JANELIA FLUOR 669 (CA-JF 669) formulated prior to lyophilization with various excipients were separately dissolved in 100 μL aqueous buffer to a final 1 mM concentration. 70 μl of the CA-JF 552 and CA-JF 669 solutions were then transferred to wells of a transparent 96-well plate for clarity analysis using Optical Density absorbance measurements at 850 nm [Bandwidth 3.5 nm] (OD850) on Tecan Spark plate reader (FIGS. 4 and 5). Target absorbance limit for clarity measurements was determined using a known turbidity sample of material similarly formulated with poloxamer to assess solubility of the ligand.
A clarity target of <0.1 was utilized.

[2] = Reconstitution of lyophilized P-407 formulated cakes in 100 μL DPBS (visual appearance); format: physicochemical; conditions: 100 nmols ligand, 100 μL DPBS (JF-552: after 4 h)
Description: The 1 μmol JF Dye HaloTag Ligand (JF-669 or JF-552) was dissolved in ca. 3.5 mL EtOH, followed by transferring the resulting solution to the melted P-407. The resulting mixture was rotated at ca. 65° C. to afford a homogeneous solution. […]

## Chloroalkyl-JANELIA FLUOR 552 [JF-552]
[1]; excipient cyclodextrin
  clarity (OD850) versus clarity target <0.1: unable to hit clarity target
[1]; excipient pullulan
  clarity (OD850) versus clarity target <0.1: unable to hit clarity target
[2]; 3-mg-P407 formulation
  appearance after reconstitution: hazy suspension
[2]; 9-mg-P407 formulation
  appearance after reconstitution: clear solution

## C[Si]1(C)C2=CC(=[N+]3CCC3)C=CC2=C(c2c(F)c(C(=O)NCCOCCOCCCCCCCl)c(F)c(F)c2C(=O)[O-])c2ccc(N3CCC3)cc21 [JF-669, Chloroalkyl-JANELIA FLUOR 669]
[1]; excipient cyclodextrin
  clarity (OD850) versus clarity target <0.1: unable to hit clarity target
[1]; excipient pullulan
  clarity (OD850) versus clarity target <0.1: unable to hit clarity target
[2]; 3-mg-P407 formulation
  appearance after reconstitution: hazy suspension
[2]; 9-mg-P407 formulation
  appearance after reconstitution: clear solution

Reference: patent US20240343906A1, “POLOXAMER-STABILIZED REAGENTS” (Promega Corporation, priority 2023, published 2024)
